{"source": "patent US9499494B2", "about": "“Pyrimidine-2,4,6-triones for use in the treatment of amyotrophic lateral sclerosis” (Northwestern University, priority 2009, dated 2016)", "format_in_all_cases": "cell-based", "key": {"[1]": {"test_system": "PC12 cells that express mutant G93A SOD1 as a YFP fusion protein", "test": "high throughput cytotoxicity protection assay", "settings": "for EC50: Rattus norvegicus, PC-12, Table 1, fluorinated PYT compounds", "from_the_text": "Cultured cells are utilized to conduct high throughput assays for compounds that protect against mutant SOD1-induced cytotoxicity. Two assays are used: first, in the cytotoxicity protection assay, compounds are screened for their ability to protect cells from the cytotoxic effects of aggregated mutant SOD1, irrespective of mechanism of drug action. Second, in the protein aggregation assay, compounds are screened for their ability to reduce aggregation of mutant SOD1. The high throughput cytotoxicity protection assay is the primary screen and compounds active in the primary screen (and their analogs) move forward into the secondary screen for protein aggregation.\n(§1) The high throughput cytotoxicity protection assay was carried out in PC12 cells that express mutant G93A SOD1 as a YFP fusion protein from a doxycycline-inducible promoter (Matsumoto et al., J. Cell. Biol. 2005, 171, 75). […] This idea was tested by examining the sensitivity of PC12 cells to SOD1 aggregates in the presence and absence of proteasome inhibitor MG132. PC12 cells expressing no SOD1, wild type SOD1, G85R SOD1 or G93A SOD1 were grown with or without MG132 (FIG. 1). […] In these cells, protein aggregation was detected after 24 h and loss of cell viability was detected at approximately 48 h. […] The ability of protein aggregates to induce cell death was examined by treating G93A SOD1-expressing cells with MG132 for 24 h, removing the MG132 by washing and assaying cell viability after another 24 h. Because the loss of cell viability was similar following MG132 removal (FIG. 1, part C), it is likely that mutant SOD1 aggregates contribute directly to cytotoxicity in PC12 cells.\n(§2) PC12 cells expressing G93A SOD1 were treated with 100 nM MG132 with or without co-treatment with geldanamycin or radicicol. […] Statistical analysis of the data produced a Z′ value of 0.55, which would predict good performance as a positive control in a high throughput screen (Zhang et al. J. Biomol. Screen 1999, 4(2), 67-73)."}, "[2]": {"test_system": "PC12 cells expressing G85R SOD1", "test": "mutant SOD1 direct protein aggregation assay", "from_the_text": "Compounds that are active in the above assay could theoretically protect against mutant SOD1-induced cytotoxicity through a number of mechanisms, including the following: 1) Compounds could nonspecifically block or reverse protein aggregation via chaperone induction, as observed for radicicol and geldanamycin 2) Compounds could block or reverse the aggregation of a specific aggregated protein form 3) Compounds could interfere with an event downstream of protein aggregation that plays a critical role in mutant SOD1-induced cytotoxicity (e.g., proteasome function). 4) Compounds could act directly on SOD1 in a manner that prevents mutant SOD1 aggregation. These possibilities were tested using an assay that directly measures protein aggregation. In addition, unlike the high throughput cytotoxicity protection assay, the protein aggregation assay is based on G85R SOD1; this broadens the scope of the screening strategy, and should eliminate compounds with highly specific activity (i.e., G93A SOD1 limited) against protein aggregation.\nIn PC12 cells that express wild-type SOD1, SOD1 was diffusely localized throughout the cell (Matsumoto et al. J. Cell. Biol 2005, 171(1), 75-85). […]\nTo allow this assay to be used in a high-throughput manner, a Cellomics Arrayscan® high content microscopy system was used for screening and quantification. […]"}, "[3]": {"test_system": "PC12 cells expressing G93A SOD1", "test": "sensitivity of PC12 cells to proteasome inhibitor (cell viability)", "method": "as §1"}, "[4]": {"test_system": "PC12 cells expressing no SOD1, wild type SOD1 and G85R SOD1", "test": "sensitivity of PC12 cells to proteasome inhibitor (cell viability)", "settings": "Rattus norvegicus, PC-12", "method": "as §1"}, "[5]": {"test_system": "PC12 cells expressing G93A mutant SOD1", "test": "mutant SOD1 protein aggregation in G93A cells", "method": "as §2\nIn PC12 cells that express wild-type SOD1, SOD1 was diffusely localized throughout the cell (Matsumoto et al. J. Cell. Biol 2005, 171(1), 75-85). […] Therefore, these effects are likely to be due to MG132-induced proteasome inhibition, and not due to an off-target effect of MG132.\nThe identification of a positive control is a crucial step in assay development. Thus, PC12 cells expressing G85R or G93A mutant SOD1 were treated with MG132 to induce protein aggregation, and then co-treated with candidate chemical suppressors of protein aggregation. […] Both compounds induce heat shock transcription factor HSF-1, which in turn induces the heat shock response (FIG. 4). Treatment with radicicol reduced the proportion of cells with aggregates from 75% to 25%, a sufficient difference to allow visual scoring for compounds with efficacy equal to or greater than radicicol."}, "[6]": {"settings": "G93A SOD1 cells treated with 100 nM MG132, co-treatment"}}, "note": "Where a SMILES comes first, the peptide text is derived from it. The star is where a group is joined. Cbz = O=C(OCc1ccccc1)*"}
{"compound": "O=C1CC(=O)N(CC(F)(F)c2ccc(F)c(F)c2)C(=O)N1CC(F)(F)c1ccc(F)c(F)c1", "values": [{"measurement": "EC50", "setting": "[1]", "value": "2000 to 8000", "unit": "nM"}]}
{"compound": "CC(C)C[C@@H](C=O)NC(=O)[C@H](CC(C)C)NC(=O)[C@H](CC(C)C)NC(=O)OCc1ccccc1", "note": "[MG132] (Cbz-Leu-Leu-Leu-aldehyde)", "values": [{"measurement": "cells containing protein aggregates", "setting": "[2]; cells expressing G85R SOD1 treated with MG132", "value": "up to 75%"}, {"measurement": "fold more sensitive than cells expressing no SOD1, wild type SOD1 or G85R SOD1", "setting": "[3]; G93A SOD1 cells", "value": "approximately 5 fold"}, {"measurement": "IC50", "setting": "[3]; Rattus norvegicus, PC-12, read-out: IC50 (cell viability)", "value": "~75", "unit": "nM"}, {"measurement": "IC50", "setting": "[4]", "value": "~400", "unit": "nM"}, {"measurement": "cells with protein aggregates", "setting": "[5]; cells expressing G93A mutant SOD1 following treatment with MG132", "value": "~75", "unit": "%"}]}
{"compound": "CC(C)C[C@H](NC(=O)[C@H](Cc1ccccc1)NC(=O)c1cnccn1)B(O)O", "note": "[bortezomib]", "values": [{"measurement": "sensitivity of PC12 cells to proteasome inhibition compared with MG132", "setting": "[3]", "value": "Qualitatively similar results"}]}
{"compound": "O=C1CC(=O)N(CC(F)(F)c2ccc(C(F)(F)F)cc2)C(=O)N1CC(F)(F)c1ccc(C(F)(F)F)cc1", "values": [{"measurement": "EC50", "setting": "[1]", "value": "2000 to 8000", "unit": "nM"}]}
{"compound": "O=C1CC(=O)N(CC(F)(F)c2ccc(Cl)c(Cl)c2)C(=O)N1CC(F)(F)c1ccc(Cl)c(Cl)c1", "values": [{"measurement": "EC50", "setting": "[1]", "value": "2000 to 8000", "unit": "nM"}]}
{"compound": "O=C1CC(=O)N(CC(F)(F)c2ccc(Cl)cc2)C(=O)N1CC(F)(F)c1ccc(Cl)cc1", "values": [{"measurement": "EC50", "setting": "[1]", "value": "2000 to 8000", "unit": "nM"}]}
{"compound": "C[C@@H]1C[C@H]2O[C@@H]2/C=C\\C=C\\C(=O)Cc2c(Cl)c(O)cc(O)c2C(=O)O1", "note": "[radicicol]", "values": [{"measurement": "proportion of cells with aggregates after treatment", "setting": "[2]; PC12 cells expressing G85R or G93A mutant SOD1, MG132-treated, 75% without co-treatment", "value": 25, "unit": "%"}, {"measurement": "cell viability", "setting": "[1]; [6]", "value": "increased cell viability in a dose-dependent manner"}, {"measurement": "formation of protein aggregates", "setting": "[5]; [6]", "value": "reduced formation of protein aggregates"}]}
